The record followed here is publication PMC10004634 (PLOS ONE, 2023).

Read-outs that look alike come from different tables or passages of the source.

Among the targets are WEE1 (Homo sapiens, UniProt P30291); SRMS (Homo sapiens, UniProt Q9H3Y6); BLK (Homo sapiens, UniProt P51451).
Holding throughout (assay): biochemical
What all share (design): KINOMEscan scanMAX competition binding, DNA-tagged kinases, qPCR read-out, percent control at 300 nM

A further assay has as its target T1, TTK (Homo sapiens, UniProt P33981).
T1 sequence (P33981 1-857): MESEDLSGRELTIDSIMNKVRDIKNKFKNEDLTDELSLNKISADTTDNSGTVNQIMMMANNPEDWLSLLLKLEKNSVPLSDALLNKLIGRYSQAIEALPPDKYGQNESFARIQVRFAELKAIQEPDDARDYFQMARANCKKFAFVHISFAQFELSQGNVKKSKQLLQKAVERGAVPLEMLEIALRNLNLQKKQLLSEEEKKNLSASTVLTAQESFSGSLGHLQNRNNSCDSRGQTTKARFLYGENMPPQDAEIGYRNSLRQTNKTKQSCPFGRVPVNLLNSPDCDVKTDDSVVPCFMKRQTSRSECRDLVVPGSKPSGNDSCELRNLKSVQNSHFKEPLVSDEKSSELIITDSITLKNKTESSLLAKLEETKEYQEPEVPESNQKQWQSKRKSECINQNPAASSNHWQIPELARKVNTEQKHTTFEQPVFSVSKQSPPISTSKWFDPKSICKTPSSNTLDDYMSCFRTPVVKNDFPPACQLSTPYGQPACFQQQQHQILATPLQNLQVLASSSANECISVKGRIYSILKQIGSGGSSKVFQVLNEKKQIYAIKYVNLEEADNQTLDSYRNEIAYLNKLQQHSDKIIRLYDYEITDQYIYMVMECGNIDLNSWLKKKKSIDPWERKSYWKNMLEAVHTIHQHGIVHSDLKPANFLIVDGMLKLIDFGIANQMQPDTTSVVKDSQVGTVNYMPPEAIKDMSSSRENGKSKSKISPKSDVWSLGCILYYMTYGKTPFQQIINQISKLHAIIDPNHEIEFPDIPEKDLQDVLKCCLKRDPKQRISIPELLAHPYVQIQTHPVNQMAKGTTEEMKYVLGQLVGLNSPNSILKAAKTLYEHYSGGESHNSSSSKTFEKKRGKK

The next assay concerns the target T2, BRSK1 (Homo sapiens, UniProt Q8TDC3).
T2 sequence (Q8TDC3 1-778): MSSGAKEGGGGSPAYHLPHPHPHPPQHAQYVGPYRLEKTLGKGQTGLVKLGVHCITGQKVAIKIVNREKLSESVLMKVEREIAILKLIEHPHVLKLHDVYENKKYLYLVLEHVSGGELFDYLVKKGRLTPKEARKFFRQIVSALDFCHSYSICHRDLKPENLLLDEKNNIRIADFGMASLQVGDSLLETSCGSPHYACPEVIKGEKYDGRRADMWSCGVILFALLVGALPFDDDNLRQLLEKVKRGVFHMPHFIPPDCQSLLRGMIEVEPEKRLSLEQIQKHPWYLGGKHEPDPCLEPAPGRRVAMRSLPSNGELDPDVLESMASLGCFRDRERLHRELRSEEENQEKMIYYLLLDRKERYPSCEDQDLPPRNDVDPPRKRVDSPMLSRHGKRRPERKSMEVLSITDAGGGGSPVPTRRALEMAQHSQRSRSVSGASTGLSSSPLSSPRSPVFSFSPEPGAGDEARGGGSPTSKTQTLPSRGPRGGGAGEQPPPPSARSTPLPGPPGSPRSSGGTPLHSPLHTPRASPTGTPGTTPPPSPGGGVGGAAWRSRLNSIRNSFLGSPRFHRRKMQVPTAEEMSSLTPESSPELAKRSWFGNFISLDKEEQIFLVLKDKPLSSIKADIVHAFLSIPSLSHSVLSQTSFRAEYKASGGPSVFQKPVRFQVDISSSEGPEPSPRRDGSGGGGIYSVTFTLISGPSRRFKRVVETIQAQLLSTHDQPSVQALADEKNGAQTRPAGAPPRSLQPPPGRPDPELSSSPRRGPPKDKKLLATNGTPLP

Another assay addresses T3, PHKG2 (Homo sapiens, UniProt P15735).
T3 sequence (P15735 1-406): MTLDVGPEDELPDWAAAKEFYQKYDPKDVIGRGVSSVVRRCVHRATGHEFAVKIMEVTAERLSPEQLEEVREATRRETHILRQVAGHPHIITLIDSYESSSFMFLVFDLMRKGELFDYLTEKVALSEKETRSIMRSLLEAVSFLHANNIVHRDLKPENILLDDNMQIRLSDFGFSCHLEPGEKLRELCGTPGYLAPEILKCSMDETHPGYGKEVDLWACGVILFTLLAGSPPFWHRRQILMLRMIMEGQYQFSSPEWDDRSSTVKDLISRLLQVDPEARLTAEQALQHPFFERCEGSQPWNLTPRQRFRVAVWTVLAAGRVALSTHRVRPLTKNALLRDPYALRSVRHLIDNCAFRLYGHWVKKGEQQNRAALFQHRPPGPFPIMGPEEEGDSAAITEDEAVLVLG

Setting [1] is: read-out: Percent control / Zanubrutinib.
[2] abbreviates: read-out: Percent control / Tirabrutinib.
Setting [3] is: read-out: Percent control / Ibrutinib.
[4] abbreviates: read-out: Percent control / Acalabrutinib.

Sequence of WEE1 (P30291 whole entry): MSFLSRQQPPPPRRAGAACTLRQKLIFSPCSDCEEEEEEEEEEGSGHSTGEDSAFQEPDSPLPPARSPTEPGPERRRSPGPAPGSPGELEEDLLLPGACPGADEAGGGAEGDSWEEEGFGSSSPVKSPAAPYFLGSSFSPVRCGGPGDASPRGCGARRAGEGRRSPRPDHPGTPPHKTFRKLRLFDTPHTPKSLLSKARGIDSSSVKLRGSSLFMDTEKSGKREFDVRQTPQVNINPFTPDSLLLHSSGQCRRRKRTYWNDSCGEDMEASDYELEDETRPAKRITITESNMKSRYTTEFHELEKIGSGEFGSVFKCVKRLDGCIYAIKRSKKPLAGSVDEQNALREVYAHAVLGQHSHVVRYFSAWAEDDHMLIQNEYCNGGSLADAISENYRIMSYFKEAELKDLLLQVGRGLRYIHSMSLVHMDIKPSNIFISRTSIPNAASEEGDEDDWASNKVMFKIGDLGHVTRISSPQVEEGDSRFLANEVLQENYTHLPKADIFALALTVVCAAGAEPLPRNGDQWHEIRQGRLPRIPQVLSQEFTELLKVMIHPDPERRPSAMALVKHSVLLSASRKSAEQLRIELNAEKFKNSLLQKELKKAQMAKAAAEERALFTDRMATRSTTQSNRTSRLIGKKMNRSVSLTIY
Sequence of SRMS (Q9H3Y6 whole entry): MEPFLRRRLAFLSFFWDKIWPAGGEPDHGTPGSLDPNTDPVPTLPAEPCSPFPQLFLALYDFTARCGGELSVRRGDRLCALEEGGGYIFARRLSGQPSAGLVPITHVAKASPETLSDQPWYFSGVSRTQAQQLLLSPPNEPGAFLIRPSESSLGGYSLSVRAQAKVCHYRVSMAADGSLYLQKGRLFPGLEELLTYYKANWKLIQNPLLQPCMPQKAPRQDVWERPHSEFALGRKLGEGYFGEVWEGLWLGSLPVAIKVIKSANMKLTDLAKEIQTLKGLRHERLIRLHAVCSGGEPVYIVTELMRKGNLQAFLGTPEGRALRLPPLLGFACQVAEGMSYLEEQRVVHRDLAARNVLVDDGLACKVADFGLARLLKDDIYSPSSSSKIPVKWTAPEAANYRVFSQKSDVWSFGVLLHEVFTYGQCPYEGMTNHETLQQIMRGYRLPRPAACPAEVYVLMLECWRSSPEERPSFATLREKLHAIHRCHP
Sequence of BLK (P51451 whole entry): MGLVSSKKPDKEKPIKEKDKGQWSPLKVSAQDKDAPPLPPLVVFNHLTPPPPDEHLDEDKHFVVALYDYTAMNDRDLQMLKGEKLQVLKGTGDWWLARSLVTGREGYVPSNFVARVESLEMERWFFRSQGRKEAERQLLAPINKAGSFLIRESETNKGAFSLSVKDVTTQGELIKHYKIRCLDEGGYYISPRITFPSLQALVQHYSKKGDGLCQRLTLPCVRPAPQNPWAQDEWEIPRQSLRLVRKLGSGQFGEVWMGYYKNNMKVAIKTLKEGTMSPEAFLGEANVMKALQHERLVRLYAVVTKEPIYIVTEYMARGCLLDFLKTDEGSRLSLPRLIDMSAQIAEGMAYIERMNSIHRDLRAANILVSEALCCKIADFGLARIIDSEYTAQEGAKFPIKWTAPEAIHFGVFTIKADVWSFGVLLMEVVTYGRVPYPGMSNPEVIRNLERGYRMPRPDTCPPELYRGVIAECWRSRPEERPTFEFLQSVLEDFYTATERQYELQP

Take `C=CC(=O)N1CCC([C@@H]2CCNc3c(C(N)=O)c(-c4ccc(Oc5ccccc5)cc4)nn32)CC1` [Zanubrutinib]: the remaining binding at 0.3 µM was found to be 94% at TTK (setting [1]), 92% on BRSK1 (setting [1]), 100% on WEE1 (setting [1]) and 92% at PHKG2 (setting [1]).

For the compound `CC#CC(=O)N1CC[C@@H](n2c(=O)n(-c3ccc(Oc4ccccc4)cc3)c3c(N)ncnc32)C1` [Tirabrutinib], the remaining binding at 0.3 µM on SRMS (setting [2]) worked out at 82%; on WEE1 (setting [2]), 93%; at PHKG2 (setting [2]), 93%; at BLK (setting [2]), 39%.

Consider `C=CC(=O)N1CCC[C@@H](n2nc(-c3ccc(Oc4ccccc4)cc3)c3c(N)ncnc32)C1` [Ibrutinib], for which the remaining binding at 0.3 µM stood at 0.3% at SRMS (setting [3]); 93% on TTK (setting [3]); 72% at BRSK1 (setting [3]); 89% on WEE1 (setting [3]); 81% on PHKG2 (setting [3]); 0.5% at BLK (setting [3]).

Consider `CC#CC(=O)N1CCC[C@H]1c1nc(-c2ccc(C(=O)Nc3ccccn3)cc2)c2c(N)nccn12` [Acalabrutinib], for which the remaining binding at 0.3 µM at SRMS (setting [4]) was found to be 79%; on TTK (setting [4]) it was 64%; at BRSK1 (setting [4]) it was 92%; on WEE1 (setting [4]) it was 80%; at BLK (setting [4]), 80%.
